Results on 24 compounds are retold here after US9718799B2, “3-aryl-4H-chromene-4-ones as antineoplastic agents for the treatment of cancer” (The University of Kentucky Research Foundation, priority 2015, dated 2017).

One data set concerns P388 leukemia cells. The settings on record: cited from earlier work.
For data set [1], the system named is PC3 prostate cancer cells. The data set is described as follows: Cell proliferation assay in prostate cancer PC3 cells. Type of data set: cell-based. The settings on record: Homo sapiens, PC-3. As for the experimental part: Cell Proliferation Assay:
PC3 prostate cancer cells were cultured in DMEM/F-12 HAM Mixture (Sigma D8437), 10% Fetal Bovine Serum (Atlanta Biological S11150). Before the treatment, 3.5×10^4 cells per well were split into 12-well plates. After 24 h, 10 μM of each compound was added to each well. DMSO was used as a control. This experiment was done in triplicate. Cell viability and number were analyzed using Vi-Cell XR Cell Viability Analyzer (Beckman Coulter).

The test system of data set [2] is PC3 prostate cancer cells. The data set is described as above. The class given is cell-based.
In data set [3] the test system is different cancer cell lines. The settings on record: cited from earlier work.

Regarding `COCc1c(OC)cc(O)c2c(=O)cc(C)oc12` [8-(methoxymethyl)eugenin], the cytotoxicity result in the data set with P388 leukemia cells is “moderate cytotoxicity”.

In the case of `COc1ccc(-c2coc3c(COC(C)=O)c(OC(C)=O)ccc3c2=O)cc1` [Isoflavonoid 7d, 7-(Acetoxy)-8-(acetoxymethyl)-3-(4-methoxyphenyl)-4H-chromen-4-one], the inhibition (in general, the change of the read-out against control, counted positive when it falls) at 10 µM in data set [1] was found to be 99.2 ± 0.4%. Moreover, the “potency at 1 µM concentration” value in data set [2] (1 µM concentration) is “retained potency”.

For `COCc1c(OC)cc2occ(-c3ccc(OC)cc3)c(=O)c2c1O` [Isoflavonoid 10b, 5-Hydroxy-7-methoxy-6-(methoxymethyl)-3-(4-methoxyphenyl)-4H-chromen-4-one], the melting point (commonly the temperature, or range, at which the solid turns liquid) lay within 180 to 181 °C. Also, in data set [1], testing at 10 µM gave an inhibition of 0%.

`COCc1c(OC)cc(O)c2c(=O)c(-c3ccccc3OC)coc12` [Isoflavonoid 11a, 5-Hydroxy-7-methoxy-8-(methoxymethyl)-3-(2-methoxyphenyl)-4H-chromen-4-one] returned a melting point of 154 to 155 °C. The compound further had an inhibition at 10 µM in data set [1] of 0%.

In the case of `COCc1c(OC)cc(O)c2c(=O)c(-c3ccc(OC)cc3)coc12` [Isoflavonoid 11b, 5-Hydroxy-7-methoxy-8-(methoxymethyl)-3-(4-methoxyphenyl)-4H-chromen-4-one], the melting point fell in the range of 126 to 128 °C. In data set [1], this compound registered an inhibition at 10 µM of 96.8 ± 0.8%.

Regarding `COCc1c(O)ccc2c(=O)c(-c3ccccc3OC)coc12` [Isoflavonoid 11c, 7-Hydroxy-8-(methoxymethyl)-3-(2-methoxyphenyl)-4H-chromen-4-one], the melting point lay within 164 to 166 °C. The inhibition at 10 µM in data set [1] came out at 0%.

On to `COCc1c(O)ccc2c(=O)c(-c3ccc(OC)cc3)coc12` [Isoflavonoid 11d, 7-Hydroxy-8-(methoxymethyl)-3-(4-methoxyphenyl)-4H-chromen-4-one], for which the melting point is 167 to 169 °C (dec.). The compound also returned an inhibition at 10 µM in data set [1] of 34.9 ± 3.3%.

Turning to `COc1ccc(-c2coc3c4c(ccc3c2=O)OC2OCCC2C4)cc1` (stereo not drawn) [Isoflavonoid 20a, 3-(4-Methoxyphenyl)-9,10,10a,11-tetrahydro-4H,7aH-furo[2,3-b]pyrano[2,3-f]chromen-4-one], the melting point fell in the range of 201 to 202 °C. For the same compound, in data set [1], testing at 10 µM gave an inhibition of 62 ± 7%.

Consider `O=c1c(-c2ccc3c(c2)OCO3)coc2c3c(ccc12)OC1OCCC1C3` (stereo not drawn) [Isoflavonoid 20c, 3-(1,3-Benzodioxol-5-yl)-9,10,10a,11-tetrahydro-4H,7aH-furo[2,3-b]pyrano[2,3-f]chromen-4-one], for which the melting point lay in the range of 203 to 205 °C. The compound also gave an inhibition at 10 µM in data set [1] of 47 ± 4%.

`O=c1c(-c2ccc(Cl)cc2)coc2c3c(ccc12)OC1OCCC1C3` (stereo not drawn) [Isoflavonoid 20e, 3-(4-Chlorophenyl)-9,10,10a,11-tetrahydro-4H,7aH-furo[2,3-b]pyrano[2,3-f]chromen-4-one] had a melting point of 194 to 195 °C. For the same compound, the inhibition at 10 µM in data set [1] came to 63 ± 10%.

In turn, `COc1ccc(-c2coc3c4c(ccc3c2=O)OC2OCCCC2C4)cc1` (stereo not drawn) [Isoflavonoid 21a, 3-(4-Methoxyphenyl)-10,11,11a,12-tetrahydro-4H,7aH,9H-dipyrano[2,3-b:2′,3′-f]chromen-4-one] came in with a melting point of 182 to 183 °C. In data set [1], this compound gave an inhibition at 10 µM of 73 ± 6%.

The compound `COc1ccc(-c2coc3c4c(ccc3c2=O)OC2OCCCC2C4)cc1OC` (stereo not drawn) [Isoflavonoid 21b, 3-(3,4-Dimethoxyphenyl)-10,11,11a,12-tetrahydro-4H,7aH,9H-dipyrano[2,3-b:2′,3′-f]chromen-4-one] showed a melting point of 177 to 178 °C. The compound further came in with an inhibition at 10 µM in data set [1] of 35 ± 10%.

For `O=c1c(-c2ccc3c(c2)OCO3)coc2c3c(ccc12)OC1OCCCC1C3` (stereo not drawn) [Isoflavonoid 21c, 3-(1,3-Benzodioxol-5-yl)-10,11,11a,12-tetrahydro-4H,7aH,9H-dipyrano[2,3-b:2′,3′-f]chromen-4-one], the melting point was 179 to 181 °C. This compound came in with an inhibition at 10 µM in data set [1] of 68%.

Take `O=c1c(-c2ccc3c(c2)OCCO3)coc2c3c(ccc12)OC1OCCCC1C3` (stereo not drawn) [Isoflavonoid 21d, 3-(2,3-Dihydro-1,4-benzodioxin-6-yl)-10,11,11a,12-tetrahydro-4H,7aH,9H-dipyrano[2,3-b:2′,3′-f]chromen-4-one]: the melting point was in the range of 160 to 162 °C. The inhibition at 10 µM in data set [1] came out at 48 ± 3%.

The compound `O=c1c(-c2ccc(Cl)cc2)coc2c3c(ccc12)OC1OCCCC1C3` (stereo not drawn) [Isoflavonoid 21e, 3-(4-Chlorophenyl)-10,11,11a,12-tetrahydro-4H,7aH,9H-dipyrano[2,3-b:2′,3′-f]chromen-4-one] came in with a melting point of 195 to 197 °C. The inhibition at 10 µM in data set [1] came out at 44 ± 4%.

Regarding `COc1ccc(-c2c(C)oc3c4c(ccc3c2=O)OC2OCCCC2C4)cc1` (stereo not drawn) [Isoflavonoid 21g, 3-(4-Methoxyphenyl)-2-methyl-10,11,11a,12-tetrahydro-4H,7aH,9H-dipyrano[2,3-b:2′,3′-f]chromen-4-one], the melting point was 199 to 200 °C. Further, the inhibition at 10 µM in data set [1] is 62%.

Turning to `COc1ccc(-c2c(C)oc3c4c(ccc3c2=O)OC2OCCCC2C4)cc1OC` (stereo not drawn) [Isoflavonoid 21h, 3-(3,4-Dimethoxyphenyl)-2-methyl-10,11,11a,12-tetrahydro-4H,7aH,9H-dipyrano[2,3-b:2′,3′-f]chromen-4-one], the melting point is 209 to 210 °C. Also, at 10 µM the inhibition in data set [1] was 44 ± 3%.

`Cc1oc2c3c(ccc2c(=O)c1-c1ccc(Cl)cc1)OC1OCCCC1C3` (stereo not drawn) [Isoflavonoid 21i, 3-(4-Chlorophenyl)-2-methyl-10,11,11a,12-tetrahydro-4H,7aH,9H-dipyrano[2,3-b:2′,3′-f]chromen-4-one] had a melting point of 205 to 206 °C. Further, in data set [1], the inhibition at 10 µM worked out at 74 ± 3%.

For the compound `COc1ccc(-c2coc3c4c(ccc3c2=O)OC2=C(C4)C(=O)CC(C)(C)C2)cc1OC` [Isoflavonoid 22b, 3-(3,4-Dimethoxyphenyl)-9,9-dimethyl-8,9,10,12-tetrahydro-4H,11H-pyrano[2,3-a]xanthene-4,11-dione], the melting point lay within 196 to 198 °C. In data set [1], this compound showed an inhibition at 10 µM of 86 ± 1%. In addition, 10 µM produced 86% inhibition in data set [1] (PC3 cells, 10 μM). In data set [2] (Homo sapiens, PC-3, 1 μM), this compound came in with an inhibition at 1 µM of 31%.

Turning to `COc1ccc(-c2coc3c4c(ccc3c2=O)OC2(O)CCCCC2C4)cc1` (stereo not drawn) [Isoflavonoid 24a, 7a-Hydroxy-3-(4-methoxyphenyl)-8,9,10,11,11a,12-hexahydro-4H,7aH-pyrano[2,3-a]xanthen-4-one], the melting point was in the range of 222 to 223 °C. In data set [1], this compound returned an inhibition at 10 µM of 30 ± 15%.

For the compound `COc1ccc(-c2coc3c4c(ccc3c2=O)OC2(O)CCCCC2C4)cc1OC` (stereo not drawn) [Isoflavonoid 24b, 3-(3,4-Dimethoxyphenyl)-7a-hydroxy-8,9,10,11,11a,12-hexahydro-4H,7aH-pyrano[2,3-a]xanthen-4-one], the melting point was 214 to 216 °C. In addition, the inhibition at 10 µM in data set [1] was 56 ± 5%.

Take `COc1ccc(-c2c(C)oc3c4c(ccc3c2=O)OC2(O)CCCCC2C4)cc1` (stereo not drawn) [Isoflavonoid 24g, 7a-Hydroxy-3-(4-methoxyphenyl)-2-methyl-8,9,10,11,11a,12-hexahydro-4H,7aH-pyrano[2,3-a]xanthen-4-one]: the melting point lay within 212 to 213 °C. This compound had an inhibition at 10 µM in data set [1] of 78 ± 1%.

`COc1ccc(-c2coc3c(C)c4c(cc3c2=O)CC2CCOC2O4)cc1` (stereo not drawn) [Isoflavonoid 25a, 3-(4-Methoxyphenyl)-11-methyl-6a,7,8,9a-tetrahydro-4H,6H-furo[2,3-b]pyrano[3,2-g]chromen-4-one] registered a melting point of 155 to 157 °C. In data set [1], this compound returned an inhibition at 10 µM of 78 ± 3%.

In the case of `O=c1c(-c2ccc(O)cc2)coc2cc(O)cc(O)c12` [genistein (B), genistein], the IC50 (commonly the concentration that inhibits the measured activity by half) in data set [3] was 15 to 100 µM.
